Reference: patent US12128028B2, “Heterocyclic sulfonamide derivatives and pharmaceutical uses thereof” (METRION BIOSCIENCES LIMITED, priority 2018, dated 2024)

biological target: human Kv1.3 (Homo sapiens (Human), UniProt P22001); assay: Kv1.3 potency evaluation, automated patch clamp electrophysiology (QPatch HT) in CHO-Kv1.3 cells; assay type: cell-based; settings: whole-cell QPatch HT, % inhibition of charge, step to +30 mV, four concentrations, N≥3 cells, read-out: hKv1.3 IC50
Text: Biological Assays Kv1.3 Potency Evaluation Electrophysiology Recordings
A proprietary Chinese hamster ovary cell line stably expressing exogenous human a-subunits of Kv1.3 (CHO-Kv1.3) channel, validated biophysically and pharmacologically in house, was used to assess the ability of test compounds to block Kv1.3 currents using automated patch clamp electrophysiology. The QPatch HT system (Sophion Bioscience A/S, Denmark) was used with the conventional whole-cell configuration. This system is an automated, chip-based planar patch clamp device allowing for up to 48 parallel independent experiments in one experimental assay run. Cells are added to each well and drawn by suction onto a small aperture to obtain a Gigaohm seal between the cell membrane and treated silicon surface, and whole-cell recordings initiated after access is achieved by suction and/or voltage pulses. The QPatch HT uses static perfusion, whereby a small volume of recording solution or drug is added to a reservoir on the chip and the solution perfuses across the cell through quartz-lined microfluidic channels; this solution is removed by capillary action when the next sample application is made.
CHO-Kv1.3 cells were prepared for experiments by dissociation from T175 cell culture flasks using trypsin-EDTA (0.05%), cells were kept in serum free media in the cell hotel on board the QPatch HT. These cells were sampled, washed and re-suspended in extracellular recording solution by the QPatch HT immediately before application to the recording well site on the chip. Experiments were performed using the following solutions; extracellular solution contained (in mM); 150 NaCl, 10 KCl, 1 MgCl2, 3 CaCl2), 10 Glucose and 10 HEPES (pH 7.4, NaOH) and intracellular solution contained (in mM); 20 KCl, 120 KF, 10 HEPES, 10 EGTA, 5 ATP (pH 7.2, KOH).
The potency (Inhibitory Concentration 50%, IC50) of synthesized compounds against Kv1.3 was determined from concentration-response relationships established by cumulatively applying four escalating concentrations of test compound to an individual cell and a minimum of N≥3 individual cells of data per compound were used to generate the IC50 value.
On achieving the whole-cell configuration; two additions of vehicle (0.1-0.3% DMSO v/v) were applied to each cell in two bolus additions with a two minute recording period between each addition (four minutes total recording time). Following the vehicle period, four concentrations of test sample were applied as two bolus additions per test concentration at two minute intervals, and the effects on current measured during the four minute recording period.
Currents were elicited using a single step voltage protocol. From a holding potential of −80 mV the cell is depolarised to +30 mV (500 ms) resulting in an outward current before finally repolarising the cell by returning to the holding potential. The command voltage was applied at a frequency of 0.067 Hz throughout the duration of the experiment. For each sweep of the voltage protocol membrane current and the passive properties of the individual cells were recorded by QPatch assay software (version 5.2). Cursors were placed to calculate the charge (integral of the current recorded during cursor interval) between 2-490 ms (0.4-99%) of the 500 ms step to +30 mV.
The % inhibition of charge for each test concentration application period was calculated as the reduction in mean charge at the end of each concentration test period relative to the charge value measured at the end of the control (i.e. vehicle) period. Sigmoidal concentration response curves (four parameter logistic curve) were fitted to the % inhibition rom which the IC50 was determined. Curve fits were constrained at 0 and 100%.

Sequence of human Kv1.3 (P22001 whole entry): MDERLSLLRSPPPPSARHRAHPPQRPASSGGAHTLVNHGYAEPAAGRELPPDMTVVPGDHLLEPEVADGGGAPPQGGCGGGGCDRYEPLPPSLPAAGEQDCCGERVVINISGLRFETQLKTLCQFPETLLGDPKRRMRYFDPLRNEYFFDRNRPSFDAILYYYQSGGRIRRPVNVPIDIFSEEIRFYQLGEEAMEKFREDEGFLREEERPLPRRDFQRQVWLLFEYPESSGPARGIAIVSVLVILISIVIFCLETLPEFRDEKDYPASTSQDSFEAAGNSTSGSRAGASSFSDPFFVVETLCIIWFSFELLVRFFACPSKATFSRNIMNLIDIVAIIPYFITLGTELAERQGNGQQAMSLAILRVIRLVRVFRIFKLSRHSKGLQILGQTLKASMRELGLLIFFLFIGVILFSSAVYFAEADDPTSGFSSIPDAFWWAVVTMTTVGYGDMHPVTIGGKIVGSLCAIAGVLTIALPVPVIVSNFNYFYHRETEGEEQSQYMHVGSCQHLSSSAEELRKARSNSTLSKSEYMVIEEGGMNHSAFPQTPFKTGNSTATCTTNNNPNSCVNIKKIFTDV

| Compound | IC50 |
| --- | --- |
| CC1(C)N=C(C23CC(N(Cc4ccc(Cl)c(F)c4)S(=O)(=O)c4ccccc4)(C2)C3)N[C@H]1C(=O)NCC(O)C(F)(F)F (mixture of isomers) [Example 233] | 209 nM |
| CN(C[C@H]1CC1(F)F)C(=O)[C@@H]1NC(C23CC(N(Cc4ccc(Cl)c(Cl)c4)S(=O)(=O)CCC(F)F)(C2)C3)=NC1(C)C (mixture of isomers) [Example 183] | 108 nM |
| CN(C)C(=O)[C@]1(C)CN=C(C23CC(N(Cc4ccc(C(F)(F)F)cc4)S(=O)(=O)c4ccc(F)cc4)(C2)C3)N1 (mixture of isomers) [Example 230] | 201 nM |
| CC1(C)N=C(C23CC(N(Cc4ccc(Cl)c(Cl)c4)S(=O)(=O)CCC(F)F)(C2)C3)N[C@H]1C(=O)NC1CC(C(F)F)C1 (mixture of isomers) [Example 177] | 104 nM |
| CC1(C)N=C(C23CC(N(Cc4ccc(Cl)c(F)c4)S(=O)(=O)c4ccccc4)(C2)C3)N[C@H]1C(=O)N1CCC[C@@H](C(F)(F)F)C1 (mixture of isomers) [Example 178] | 105 nM |
| C[C@]1(C(=O)N2CCCC2)CN=C(C23CC(N(Cc4ccc(C(F)(F)F)cc4)S(=O)(=O)c4ccc(F)cc4)(C2)C3)N1 (mixture of isomers) [Example 262] | 395 nM |
| C[C@]1(C(=O)NCC2CCCCC2)CN=C(C23CC(N(Cc4ccc(C(F)(F)F)cc4)S(=O)(=O)c4ccc(F)cc4)(C2)C3)N1 (mixture of isomers) [Example 290] | 1060 nM |
| CC1(NC(=O)[C@@]2(C)CN=C(C34CC(N(Cc5ccc(C(F)(F)F)cc5)S(=O)(=O)c5ccc(F)cc5)(C3)C4)N2)CCC1 (mixture of isomers) [Example 228] | 190 nM |
| CN(CC1CCC1)C(=O)[C@@]1(C)CN=C(C23CC(N(Cc4ccc(C(F)(F)F)cc4)S(=O)(=O)c4ccc(F)cc4)(C2)C3)N1 (mixture of isomers) [Example 256] | 342 nM |
| CC1(C)CC(CNC(=O)[C@@]2(C)CN=C(C34CC(N(Cc5ccc(C(F)(F)F)cc5)S(=O)(=O)c5ccc(F)cc5)(C3)C4)N2)C1 (mixture of isomers) [Example 289] | 1060 nM |
| CN(CCC(F)(F)F)C(=O)[C@@H]1NC(C23CC(N(Cc4ccc(Cl)c(Cl)c4)S(=O)(=O)CCC(F)F)(C2)C3)=NC1(C)C (mixture of isomers) [Example 207] | 137 nM |
| CC(C)S(=O)(=O)N(Cc1ccc(Cl)cc1)C12CC(C3=NC(C)(C)[C@H](C(=O)NCCC(F)(F)F)N3)(C1)C2 (mixture of isomers) [Example 252] | 317 nM |
| CC1(C)N=C(C23CC(N(Cc4ccc(Cl)c(F)c4)S(=O)(=O)c4ccccc4)(C2)C3)N[C@@H]1C(=O)N1CCC(F)(F)CC1 (mixture of isomers) [Example 248] | 275 nM |
| C[C@]1(C(=O)NCC2CC(F)(F)C2)CN=C(C23CC(N(Cc4ccc(C(F)(F)F)cc4)S(=O)(=O)c4ccc(F)cc4)(C2)C3)N1 (mixture of isomers) [Example 227] | 186 nM |
| C[C@]1(C(=O)NC2CCCCC2)CN=C(C23CC(N(Cc4ccc(C(F)(F)F)cc4)S(=O)(=O)c4ccc(F)cc4)(C2)C3)N1 (mixture of isomers) [Example 268] | 441 nM |
| CC1(CNC(=O)[C@@]2(C)CN=C(C34CC(N(Cc5ccc(C(F)(F)F)cc5)S(=O)(=O)c5ccc(F)cc5)(C3)C4)N2)CCC1 (mixture of isomers) [Example 267] | 424 nM |
| CC(F)(F)CNC(=O)[C@@H]1NC(C23CC(N(Cc4ccc(Cl)c(F)c4)S(=O)(=O)c4ccccc4)(C2)C3)=NC1(C)C (mixture of isomers) [Example 15] | 33 nM |
| O=C(NCCC(F)(F)F)[C@@H]1NC(C23CC(N(Cc4ccc(C(F)(F)F)cc4)S(=O)(=O)c4ccc(F)cc4)(C2)C3)=NC12CC2 [Example 224] | 178 nM |
| CC(C)NC(=O)[C@@]1(C)CN=C(C23CC(N(Cc4ccc(C(F)(F)F)cc4)S(=O)(=O)c4ccc(F)cc4)(C2)C3)N1 (mixture of isomers) [Example 250] | 286 nM |

Results, then the compound that gave them:

| IC50 | Compound |
| --- | --- |
| 37 nM | CCCNC(=O)[C@@H]1NC(C23CC(N(Cc4ccc(Cl)c(F)c4)S(=O)(=O)c4ccccc4)(C2)C3)=NC1(C)C (mixture of isomers) [Example 19] |
| 88 nM | CC1(C)N=C(C23CC(N(Cc4ccc(C(F)(F)F)cc4)S(=O)(=O)c4ccc(F)cc4)(C2)C3)N[C@H]1C(=O)NCC1(F)CCC1 [Example 145] |
| 40 nM | CC1(C)N=C(C23CC(N(Cc4ccc(F)cc4)S(=O)(=O)c4ccccc4)(C2)C3)N[C@H]1C(=O)NCCC(F)(F)F (mixture of isomers) [Example 23] |
| 75 nM | CC1(C)N=C(C23CC(N(Cc4ccc(Cl)cc4)S(=O)(=O)C4CCCC4)(C2)C3)N[C@H]1C(=O)NCCC(F)(F)F (mixture of isomers) [Example 121] |
| 61 nM | CC1(C)N=C(C23CC(N(Cc4ccc(Cl)c(F)c4)S(=O)(=O)c4ccccc4)(C2)C3)N[C@H]1C(=O)NC1CC(C(F)F)C1 (mixture of isomers) [Example 84] |
| 38 nM | CC1(NC(=O)[C@@H]2NC(C34CC(N(Cc5ccc(Cl)c(F)c5)S(=O)(=O)c5ccccc5)(C3)C4)=NC2(C)C)CCC1 (mixture of isomers) [Example 21] |
| 40 nM | CN(C(=O)[C@@H]1NC(C23CC(N(Cc4ccc(Cl)c(Cl)c4)S(=O)(=O)c4ccccc4)(C2)C3)=NC1(C)C)C1CC(F)(F)C1 (mixture of isomers) [Example 29] |
| 51 nM | CC1(C)N=C(C23CC(N(Cc4ccc(Cl)cc4)S(=O)(=O)c4cccc(F)c4)(C2)C3)N[C@H]1C(=O)NCCC(F)(F)F (mixture of isomers) [Example 59] |
| 78 nM | CC1(C)N=C(C23CC(N(Cc4ccc(Cl)c(F)c4)S(=O)(=O)c4ccccc4)(C2)C3)N[C@H]1C(=O)N1CCC2(C1)CC2(F)F (mixture of isomers) [Example 129] |
| 61 nM | CC1(C)N=C(C23CC(N(Cc4ccc(Cl)c(F)c4)S(=O)(=O)c4ccccc4)(C2)C3)N[C@H]1C(=O)N1CC2CC(F)(F)CC2C1 (mixture of isomers) [Example 82] |
| 73 nM | CC1(C)N=C(C23CC(N(Cc4ccc(Cl)c(Cl)c4)S(=O)(=O)c4ccccc4)(C2)C3)N[C@H]1C(=O)N1CCC2(C1)CC(F)(F)C2 (mixture of isomers) [Example 116] |
| 40 nM | C[C@@H]1CC(F)(F)CN1C(=O)[C@@H]1NC(C23CC(N(Cc4ccc(Cl)c(F)c4)S(=O)(=O)c4ccccc4)(C2)C3)=NC1(C)C (mixture of isomers) [Example 27] |
| 89 nM | CC1(C)N=C(C23CC(N(Cc4ccc(Cl)cc4)S(=O)(=O)c4ccccc4)(C2)C3)NC1C(=O)NCCC(F)(F)F (stereo not drawn) [Example 148] |
| 61 nM | CN(CCC(F)(F)F)C(=O)[C@@H]1NC(C23CC(N(Cc4ccc(Cl)c(F)c4)S(=O)(=O)c4ccccc4)(C2)C3)=NC1(C)C (mixture of isomers) [Example 3] |
| 82 nM | CC1(C)N=C(C23CC(N(Cc4ccc(Cl)cc4)S(=O)(=O)CCC(F)F)(C2)C3)N[C@H]1C(=O)NCCC(F)(F)F (mixture of isomers) [Example 137] |
| 100 nM | CC1(C)N=C(C23CC(N(Cc4ccc(Cl)c(F)c4)S(=O)(=O)c4ccccc4)(C2)C3)N[C@H]1C(=O)NC1CC1C(F)(F)F (mixture of isomers) [Example 169] |
| 64 nM | CC1(C)N=C(C23CC(N(Cc4ccc(Cl)c(F)c4)S(=O)(=O)c4ccccc4)(C2)C3)N[C@H]1C(=O)N1CCC12CC(F)(F)C2 (mixture of isomers) [Example 94] |
